# Source: US6608036B1, “Oligonucleotide N3′→P5′ thiophosphoramidates: their synthesis and administration to treat neoplasms” (Geron Corporation, priority 1999, dated 2003)
# Where two headings read alike, the source gives them in different places.
# Key:
# [1] = system: complementary natural RNA oligomer; test: Thermal dissociation (Tm) of duplexes with complementary RNA strand; assay type: binding; conditions: 150 mM NaCl; for Tm, melting temperature of the duplexes: 10 mM sodium phosphate buffer pH 7.4, ±0.5° C.
# Method: ^31P NMR spectra were obtained on a Varian 400 Mhz spectrometer. ^31P NMR spectra were referenced against 85% aqueous phosphoric acid. Anion exchange HPLC was performed using a Dionex DX 500 Chromatography System, with a Pharmacia Bitotech Mono Q HR 5/5 or 10/16 ion exchange columns. Mass spectral analysis was performed by Mass Consortium, San Diego, Calif. MALDI-TOF analysis of oligonucleotides was obtained using a PerSpective Biosystems Voyager Elite mass spectrometer with delayed extraction. Thermal dissociation experiments were conducted on a Cary Bio 100 UV-Vis spectrometer.
# Duplex formation properties of oligonucleotide phosphoramidates with complementary RNA strand were evaluated using thermal dissociation experiments. […] Also, the increase in the thermal stability of duplexes was similar to that observed for the phosphoramidate oligomers.
# [2] = system: telomerase (affinity-purified extract from 293 cells over-expressing hTERT); test: Bio-Tel FlashPlate telomerase activity assay; assay type: biochemical, human; conditions: telomerase inhibition
# HME50-5E cells = test: Reduction of telomere length in tumor cells (TRF analysis); assay type: cell-based, human; conditions: for telomere length by TRF analysis: about 0.5 μM, measured at 10, 20, 40 and 80 days (FIG. 7)
# Method: Colonies of human breast epithelial cells (spontaneously immortalized) were prepared using standard methods and materials. Colonies were prepared by seeding 15-centimeter dishes with about 10^6 cells in each dish. The dishes were incubated to allow the cell colonies to grow to about 80% confluence, at which time each of the colonies were divided into two groups. One group was exposed to a subacute dose of thiophosphoramidate polynucleotide SEQ ID NO:2 at a predetermined concentration (e.g., between about 100 nM and about 20 μM) for a period of about 4-8 hours after plating following the split. The second group of cells were similarly exposed to mismatch control oligonucleotide SEQ ID NO:4.
# Each group of cells is then allowed to continue to divide, and the groups are split evenly again (near confluence). The same number of cells were seeded for continued growth. The test thiophosphoramidate oligonucleotide or control oligonucleotide was added every fourth day to the samples at the same concentration delivered initially. In one experiment the cells were additionally treated with FuGENE6™ (Boehringer-Mannhiem) following manufacturers instructions. FuGENE6™ enhances oligonucleotide uptake by the cells.
# Telomere length was determined by digesting the DNA of the cell samples using restriction enzymes specific for sequences other than the repetitive T2AG3 sequence of human telomeres (TRF analysis). The digested DNA was separated by size using standard techniques of gel electrophoresis to determine the lengths of the telomeric repeats, which appear, after probing with a telomere DNA probe, on the gel as a smear of high-molecular weight DNA (approximately 2 Kb-15 Kb). FIGS. 4 and 5 show examples of such experiments.
# The HME50-5E cells were incubated with one of the thiophosphoramidate polynucleotides shown in SEQ ID NOs:2 and 8. The mismatch oligonucleotide SEQ ID NO:4 was used as a control. All polynucleotides were used at a concentration of about 0.5 μM using the protocol described above. The length of the telomeres were measured at 10, 20, 40 and 80 days. […] In addition to the HME50-5E cells described above, this assay can be performed with any telomerase-positive cell line, such as HeLa cells or HEK-293 cells.
# [3] = 40% aqueous acetic acid at room temperature
# [4] = phosphoramidate backbone, read-out: IC50(nM) phosphoramidate
# [5] = thiophosphoramidate backbone, read-out: IC50(nM) thiophosphoramidate
substance,measurement,setting,value
"5′-GTTAGGGTTAG-3′ (listed as DNA, chemistry not fully specified) [SEQ ID NO:1 phosphoramidate]","−Tm, increase of Tm relative to the natural phosphodiester counterpart","[1]; 10 mM sodium phosphate buffer pH 7.4, listed as SEQ ID NO:1 np",27.9 °C
same,"Tm, melting temperature of the duplexes",[1]; listed as SEQ ID NO:1 np,72.1 °C
same,IC50,[2]; [4],1.9 nM
"5′-GTTAGGGTTAG-3′ (listed as DNA, chemistry not fully specified) [SEQ ID NO:1 thiophosphoramidate]","−Tm, increase of Tm relative to the natural phosphodiester counterpart","[1]; 10 mM sodium phosphate buffer pH 7.4, listed as SEQ ID NO:1 nps",27.3 °C
same,"Tm, melting temperature of the duplexes",[1]; listed as SEQ ID NO:1 nps,71.5 °C
same,IC50,[2]; [5],0.89 nM
"5′-GTTGAGTGTAG-3′ (listed as DNA, chemistry not fully specified) [SEQ ID NO:3 phosphoramidate, N3′→P5′ phosphoramidate mismatch control, reference compound]",IC50,[2]; [4],1000 nM
"5′-GTTGAGTGTAG-3′ (listed as DNA, chemistry not fully specified) [SEQ ID NO:3 thiophosphoramidate]",IC50,[2]; [5],177 nM
"5′-TAGGGTTAGACAA-3′ (thiophosphoramidate backbone, chemistry not fully specified) [SEQ ID NO:2 thiophosphoramidate]","−Tm, increase of Tm relative to the natural phosphodiester counterpart",[1]; 10 mM sodium phosphate buffer pH 7.4,24.8 °C
same,"Tm, melting temperature of the duplexes",[1],70.0 °C
same,IC50,[2]; [5],0.41 nM
same,telomere size compared to control cells,"HME50-5E cells; HME50-5E cells coincubated with FuGENE6, even at lowest concentration tested (100 nM) (FIG. 4)",telomere size was reduced compared to the control cells
same,telomere length by TRF analysis,HME50-5E cells; HME50-5E cells,effective in reducing telomere length
same,telomere length,"HME50-5E cells; HME50-5E cells, absence of FuGENE6, 1-20 μM (FIG. 4)",large decrease in telomere length
same,telomere length (inhibition of telomerase activity),HME50-5E cells; treatment of HME50-5E human breast epithelial cells,decrease in telomere length
5′-TAGGGTTAGACAA-3′ [SEQ ID NO:2 phosphoramidate],"−Tm, increase of Tm relative to the natural phosphodiester counterpart","[1]; 10 mM sodium phosphate buffer pH 7.4, listed as SEQ ID NO:2 np",26.5 °C
same,"Tm, melting temperature of the duplexes",[1]; listed as SEQ ID NO:2 np,71.7 °C
same,"Acid Stability, half-live of oligonucleotide",[3]; listed as SEQ ID NO:2 np,0.5 h
"5′-TAGGGTTAGACAA-3′ [SEQ ID NO:2 thiophosphoramidate] (thiophosphoramidate backbone, chemistry not fully specified)","Acid Stability, half-live of oligonucleotide",[3]; listed as SEQ ID NO:2 nps,6 h
"5′-TAGGTGTAAGCAA-3′ (listed as DNA, chemistry not fully specified) [SEQ ID NO:4 phosphoramidate, N3′→P5′ phosphoramidate mismatch control, reference compound]",IC50,[2]; [4],1000 nM
"5′-TAGGTGTAAGCAA-3′ (listed as DNA, chemistry not fully specified) [SEQ ID NO:4 thiophosphoramidate]",IC50,[2]; [5],79.3 nM
"CAGTTAGGGTTAG (listed as DNA, chemistry not fully specified) [SEQ ID NO:8 thiophosphoramidate]",telomere length by TRF analysis,HME50-5E cells; HME50-5E cells,effective in reducing telomere length
same,telomere size compared to control cells,HME50-5E cells; even at lowest concentration tested (1 nM) (FIG. 5),telomere size was reduced compared to the control cells
"GTTAGGGTTAG (unmodified DNA) [SEQ ID NO:1 po, natural phosphodiester oligomer]","Tm, melting temperature of the duplexes",[1],44.2 °C
"TAGGGTTAGACAA (DNA, all phosphodiester, methylation of C not given here) [SEQ ID NO:2 po, natural phosphodiester oligomer]","Tm, melting temperature of the duplexes",[1],45.2 °C
